Results taken from PubChem BioAssay AID256 (DTP/NCI, 2004).
“And” between values parts separate entries of the source, which are not always exact repeats. Equal values may be shown once. Inconclusive results and toxic doses are left out.

Test system: CD2F1 mice, L1210 leukemia ip, survival T/C
Test: NCI In Vivo Anticancer Drug Screen. Data for tumor model L1210 Leukemia (intraperitoneal) in CD2F1 (CDF1) mice
Conditions: higher = longer survival
Summary of the method: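 Antitumor effect is scored in animals hosting a serially transplanted tumor. Values compare compound-dosed animals against vehicle-only controls as a simple quotient.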

Q: Which T/C (endpoint: mean survival time, dose: 6.25 mg/kg/injection, schedule: Q01DX009 (ip), vehicle: water) does the source give for Cc1cc(NCCCCCCNc2cc(C)nc3ccc(N)cc23)c2cc(N)ccc2n1 here?
A: 122 % of control

Q: And the T/C (endpoint: mean survival time, dose: 6.4 mg/kg/injection, schedule: Q08HX009 (ip), vehicle: water)?
A: 121 % of control

Q: And the T/C (endpoint: mean survival time, dose: 7.2 mg/kg/injection, schedule: Q01DX009 (ip), vehicle: saline with Tween-80)?
A: 115 % of control

Q: What about the T/C (endpoint: mean survival time, dose: 7.4 mg/kg/injection, schedule: Q01DX009 (ip), vehicle: saline with Tween-80) of the same compound?
A: 120 % of control

Q: What about the T/C (endpoint: mean survival time, dose: 7.6 mg/kg/injection, schedule: Q08HX006 (iv), vehicle: saline with Tween-80) of the same compound?
A: 101 % of control

Q: What about the T/C (endpoint: mean survival time, dose: 7.6 mg/kg/injection, schedule: Q08HX009 (iv), vehicle: saline with Tween-80) of the same compound?
A: 89 % of control

Q: What about the T/C (endpoint: mean survival time, dose: 8.2 mg/kg/injection, schedule: Q01DX009 (sc), vehicle: saline with Tween-80) of the same compound?
A: 98 % of control

Q: And the T/C (endpoint: mean survival time, dose: 9.0 mg/kg/injection, schedule: Q01DX009 (ip), vehicle: saline)?
A: 121 % of control

Q: What about the T/C (endpoint: mean survival time, dose: 9.4 mg/kg/injection, schedule: Q01DX009 (ip), vehicle: water) of the same compound?
A: 118 % of control

Q: And the T/C (endpoint: mean survival time, dose: 10.9 mg/kg/injection, schedule: Q01DX009 (sc), vehicle: saline with Tween-80)?
A: 98 % of control

Q: And the T/C (endpoint: mean survival time, dose: 12.8 mg/kg/injection, schedule: Q01DX009 (ip), vehicle: saline with Tween-80)?
A: 115 % of control

Q: And the T/C (endpoint: mean survival time, dose: 14.5 mg/kg/injection, schedule: Q01DX009 (ip), vehicle: saline with Tween-80)?
A: 156 % of control

Q: And the T/C (endpoint: mean survival time, dose: 15.3 mg/kg/injection, schedule: Q08HX009 (iv), vehicle: saline with Tween-80)?
A: 89 % of control

Q: And the T/C (endpoint: mean survival time, dose: 19.0 mg/kg/injection, schedule: Q01DX009 (sc), vehicle: water)?
A: 113 % of control

Q: And the T/C (endpoint: mean survival time, dose: 19.4 mg/kg/injection, schedule: Q01DX005 (iv), vehicle: saline with Tween-80)?
A: 118 % of control and 119 % of control

Q: And the T/C (endpoint: mean survival time, dose: 19.4 mg/kg/injection, schedule: Q01DX009 (ip), vehicle: saline with Tween-80)?
A: 165 % of control

Q: What about the T/C (endpoint: mean survival time, dose: 19.4 mg/kg/injection, schedule: Q01DX009 (sc), vehicle: saline with Tween-80) of the same compound?
A: 115 % of control

Q: And the T/C (endpoint: mean survival time, dose: 19.6 mg/kg/injection, schedule: Q08HX009 (ip), vehicle: saline with Tween-80)?
A: 151 % of control

Q: And the T/C (endpoint: mean survival time, dose: 22.7 mg/kg/injection, schedule: Q01DX009 (ip), vehicle: saline with Tween-80)?
A: 118 % of control

Q: What about the T/C (endpoint: mean survival time, dose: 25.0 mg/kg/injection, schedule: Q01DX009 (ip), vehicle: water) of the same compound?
A: 109 % of control

Q: What about the T/C (endpoint: mean survival time, dose: 25.3 mg/kg/injection, schedule: Q01DX009 (ip), vehicle: water) of the same compound?
A: 160 % of control

Q: And the T/C (endpoint: mean survival time, dose: 25.3 mg/kg/injection, schedule: Q01DX009 (sc), vehicle: water)?
A: 115 % of control

Q: And the T/C (endpoint: mean survival time, dose: 25.8 mg/kg/injection, schedule: Q01DX005 (iv), vehicle: saline with Tween-80)?
A: 117 % of control and 120 % of control

Q: What about the T/C (endpoint: mean survival time, dose: 25.8 mg/kg/injection, schedule: Q01DX009 (ip), vehicle: saline with Tween-80) of the same compound?
A: 166 % of control

Q: And the T/C (endpoint: mean survival time, dose: 25.8 mg/kg/injection, schedule: Q01DX009 (sc), vehicle: saline with Tween-80)?
A: 123 % of control

Q: What about the T/C (endpoint: mean survival time, dose: 29.4 mg/kg/injection, schedule: Q01DX009 (ip), vehicle: saline with Tween-80) of the same compound?
A: 171 % of control

Q: What about the T/C (endpoint: mean survival time, dose: 30.6 mg/kg/injection, schedule: Q08HX009 (iv), vehicle: saline with Tween-80) of the same compound?
A: 95 % of control

Q: And the T/C (endpoint: mean survival time, dose: 33.8 mg/kg/injection, schedule: Q01DX009 (sc), vehicle: water)?
A: 124 % of control

Q: And the T/C (endpoint: mean survival time, dose: 34.4 mg/kg/injection, schedule: Q01DX005 (iv), vehicle: saline with Tween-80)?
A: 116 % of control and 123 % of control

Q: And the T/C (endpoint: mean survival time, dose: 34.4 mg/kg/injection, schedule: Q01DX009 (ip), vehicle: saline with Tween-80)?
A: 167 % of control

Q: What about the T/C (endpoint: mean survival time, dose: 34.4 mg/kg/injection, schedule: Q01DX009 (sc), vehicle: saline with Tween-80) of the same compound?
A: 124 % of control

Q: And the T/C (endpoint: mean survival time, dose: 39.2 mg/kg/injection, schedule: Q08HX009 (ip), vehicle: saline with Tween-80)?
A: 165 % of control

Q: What about the T/C (endpoint: mean survival time, dose: 40.4 mg/kg/injection, schedule: Q01DX009 (ip), vehicle: saline with Tween-80) of the same compound?
A: 123 % of control

Q: What about the T/C (endpoint: mean survival time, dose: 45.9 mg/kg/injection, schedule: Q01DX009 (ip), vehicle: saline with Tween-80) of the same compound?
A: 171 % of control

Q: What about the T/C (endpoint: mean survival time, dose: 58.8 mg/kg/injection, schedule: Q01DX009 (ip), vehicle: saline with Tween-80) of the same compound?
A: 185 % of control

Q: What about the T/C (endpoint: mean survival time, dose: 71.8 mg/kg/injection, schedule: Q01DX009 (ip), vehicle: saline with Tween-80) of the same compound?
A: 157 % of control

Q: And the T/C (endpoint: mean survival time, dose: 78.4 mg/kg/injection, schedule: Q08HX009 (ip), vehicle: saline with Tween-80)?
A: 180 % of control

Q: And the T/C (endpoint: mean survival time, dose: 117.6 mg/kg/injection, schedule: Q01DX009 (ip), vehicle: saline with Tween-80)?
A: 98 % of control

Q: And the T/C (endpoint: mean survival time, dose: 127.8 mg/kg/injection, schedule: Q01DX009 (ip), vehicle: saline with Tween-80)?
A: 151 % of control

Q: And the T/C (endpoint: mean survival time, dose: 150.0 mg/kg/injection, schedule: Q01DX009 (ip), vehicle: saline with Tween-80)?
A: 168 % of control and 174 % of control

Q: And the T/C (endpoint: mean survival time, dose: 300.0 mg/kg/injection, schedule: Q01DX009 (ip), vehicle: saline with Tween-80)?
A: 120 % of control

Q: What about the T/C (endpoint: median survival time, dose: 0.78 mg/kg/injection, schedule: Q01DX009 (ip), vehicle: water) of the same compound?
A: 98 % of control

Q: And the T/C (endpoint: median survival time, dose: 1.56 mg/kg/injection, schedule: Q01DX009 (ip), vehicle: water)?
A: 93 % of control

Q: What about the T/C (endpoint: median survival time, dose: 3.12 mg/kg/injection, schedule: Q01DX009 (ip), vehicle: water) of the same compound?
A: 98 % of control

Q: And the T/C (endpoint: median survival time, dose: 6.25 mg/kg/injection, schedule: Q01DX009 (ip), vehicle: water)?
A: 109 % of control

Q: What about the T/C (endpoint: median survival time, dose: 12.5 mg/kg/injection, schedule: Q01DX009 (ip), vehicle: water) of the same compound?
A: 117 % of control
